# Reference: US11219641B2 («NORMOPHARM» LIMITED LIABILITY COMPANY [RU/RU], priority 2017, dated 2022)
# Read-outs that look alike come from different tables or passages of the source.
# How the values were obtained:
# [1] = test system: damaged neurocytes of the pyramidal layer of the forebrain cortex; assay: Morphometric histological analysis of forebrain cortex neurocytes, prophylaxis series; assay type: in vivo, Wistar rats; details: 5 mg/kg, prophylactic application; placebo group 34.8%
# Experimental: (§1) Creating a model of alcohol dependence.
# (§2) Preparation dosage and application. […] Each group contained 21 animals.
# Histological analysis of the nervous tissue. The brain after craniotomy was wholly removed and fixed in a 10% solution of neutral formalin, in 24 hours a zone of precentral gyrus of the forebrain was exposed by frontal incisions. Preparation of nerve tissue specimens was performed according to a standard procedure (dehydration in ethyl alcohol, xylene) with subsequent fabrication of paraffin blocks. Histological sections of 6 μm thick made on a sliding Microm microtome were stained with hematoxylene and eosin. Section duplicates were Nissl-stained with a reagent kit (Biovitrum Co.) and impregnated with silver. Histological sections were morphometrically examined using BioVision image analyzer (Austria) for counting damaged neurocytes of the pyramidal layer of the forebrain cortex in 10 various fields of vision with subsequent statistical processing of the results. Microphotographs were obtained with the help of the research Micros microscope and DCM 900 digital ocular camera.
# [2] = test system: model of chronic alcohol intoxication; assay: Neurological testing (OFT, EPMT), prophylaxis series; assay type: in vivo, Wistar rats
# Experimental: as §1, §2
# (§3) Neurological testing. A general assessment of somatic and neurological status of animals was performed in all examined groups.
# (§4) In the open field test (OFT), vertical activity, horizontal activity, frequency of dipping into the holes (a hole exploratory test or “burrow reflex”), grooming frequency, and frequency of central zone entries were registered. In OFT, an animal was placed in one and the same square located near the wall. An exposure time for each animal in the model was 5 min. A round OF represented an arena 1 m in diameter and a wall of 0.4 m height with the floor divided into sectors. Three zones were marked in the open field: central, intermediate (6 sectors), peripheral (12 sectors). Two 60 W lamps were located at a height of 1.5 m from the chamber floor over the central field segments. Horizontal activity in the central and peripheral zone, vertical activity, grooming frequency, frequency of defecation, burrow reflexes were fixed during the test. The walls and floor were treated with a wet and dry cloth after each animal.
# The time spent in the open and closed arms and in the maze center, duration of grooming in the closed arm, a number of grooming episodes in the closed arm were registered during the elevated plus maze test (EPMT). […]
# [3] = test system: model of chronic alcohol intoxication; assay: Observation of abstinence after alcohol withdrawal, treatment series; details: after alcohol solution withdrawal, 5, 10, 30 mg/kg
# Experimental: Creating a model of alcohol dependence. The criterion for selecting rats, along with the absence of obvious abnormalities in the state and behavior, was an initial preference for 6% ethyl alcohol over tap water. To determine this preference, a preliminary experiment was conducted during 3 days in the individual cages with a free access to both liquids. Once a selection has been done, 6% ethyl alcohol was offered as the only source of liquid, a week later the concentration of alcohol was increased to 15%. After 2 weeks, alcohol was replaced by tap water.
# Preparation dosage and application. The experiment was carried out in two series «prophylaxis» and «treatment» with four groups in each series: (1) dose 30 mg/kg (experimental group 1), (2) dose 10 mg/kg (experimental group 2), (3) dose 5 mg/kg (experimental group 3), (4) placebo group. In the experiments of “prophylaxis” series, the preparation was introduced concurrently with model creation, while in the experiments of “treatment” series it was done after model creation. Each group contained 21 animals. Said preparation was introduced intragastrically via a probe once a day in volume of 0.5 ml per each animal for 14 days.
# “Treatment” represents a more rigid model of alcohol intoxication for evaluation of the preparation efficacy.
# [4] = test system: model of chronic alcohol intoxication; details: treatment series
# Experimental: (§5) Materials and Methods. White Wistar male rats weighing 200-250 g (n=168) were used as a model object. The investigation was approved by ethical committee of Federal State Budgetary Educational Institution of Higher Professional Education “Ivanovo State Medical Academy”, the Ministry of Health of the Russian Federation” on Mar. 15, 2016; all procedures and experiments on rats were conducted in compliance with the international rules of treating animals used for scientific purposes. Animals were housed in equal rooms in cages of 7 rats in each at 19-21° C. Animals were given 40-50 g of a mixed fodder per animal every day.
# as §1, §2, §3, §4
# [5] = test system: model of chronic alcohol intoxication; details: prophylaxis series
# Text: as §1, §2
# [6] = Wistar rats, literature (Ostrenko et al.); cited from earlier work
# [7] = test system: model of chronic alcohol intoxication; details: after 7 days, treatment series
# Experimental: as §5, §1, §2, §3
# The time spent in the open and closed arms and in the maze center, duration of grooming in the closed arm, a number of grooming episodes in the closed arm were registered during the elevated plus maze test (EPMT). The tested object was placed in the center of EPM with its nose towards the open arm. The time of testing the animals in the EPM amounted to 5 min. The apparatus used in the test consisted of two arms with an open area at the site of their crossing. One of the maze arms had closed compartments. The maze was installed at a height of 1 m from the floor. The time spent in the open and closed arm, grooming frequency, and rearing frequency were registered.
# [8] = 5 mg/kg intragastrically once a day, after 7 days
# [9] = 10 mg/kg intragastrically once a day, after 7 days
# [10] = 30 mg/kg intragastrically once a day, after 7 days
# [11] = 5 mg/kg intragastrically once a day
# [12] = 10 mg/kg intragastrically once a day
# [13] = 30 mg/kg intragastrically once a day
smiles,measurement,setting,value
O=C1O[C@H]([C@@H](O)CO)C([O-])=C1O.[Li+] [lithium ascorbate],amount of the damaged cortex cells,[1],18.5%
same,dose from which effective prophylaxis of neurological disorders was noted,[2]; introduced with alcohol for 2 weeks,≥ 5 mg/kg
same,vertical activity in neurological tests,[2]; various dosages during 2 weeks,increased vertical activity
same,cramps during abstinence,[3],No cramps were noted
same,number of aggressive incidents during abstinence,[3],reduced the number of aggressive incidents
same,Frequency of dipping into the hole (OFT),[4]; [8],1.1 times
same,Grooming frequency (OFT),[4]; [8],8.9 times
same,Horizontal locomotor activity central (OFT),[4]; [8],1.0
same,Horizontal locomotor activity peripheral (OFT),[4]; [8],19.3
same,Number of boluses (OFT),[4]; [8],15.1 pcs
same,Frequency of dipping into the hole (OFT),[4]; [9],1.9 times
same,Horizontal locomotor activity central (OFT),[4]; [9],1.8
same,Number of boluses (OFT),[4]; [9],12.6 pcs
same,Vertical locomotor activity (OFT),[4]; [9],1.4
same,Frequency of dipping into the hole (OFT),[4]; [10],2.0 times
same,Horizontal locomotor activity central (OFT),[4]; [10],1.9
same,Number of boluses (OFT),[4]; [10],12.2 pcs
same,Vertical locomotor activity (OFT),[4]; [10],1.6
same,"dose at which adequate efficacy was noted, treatment purposes","[4]; doses 5, 10, 30 mg/kg compared",5 mg/kg
same,catecholamine content in the animal blood,[5]; applied together with alcohol,inhibited the increase of catecholamine content
same,MDA levels in blood serum,[5],decreased MDA levels
same,toxicity class,[6],Class 5
same,Grooming frequency (EPMT),[7]; [11],9.1 times
same,Time spent in the closed arm (EPMT),[7]; [11],270.67 s
same,Time spent in the open arm (EPMT),[7]; [11],27.73 s
same,Grooming frequency (EPMT),[7]; [12],6.3 times
same,Time spent in the closed arm (EPMT),[7]; [12],265.19 s
same,Time spent in the open arm (EPMT),[7]; [12],34.81 s
same,Vertical activity (EPMT),[7]; [12],1.5
same,Grooming frequency (EPMT),[7]; [13],5.8 times
same,Time spent in the closed arm (EPMT),[7]; [13],259.01 s
same,Time spent in the open arm (EPMT),[7]; [13],38.26 s
